Reference: article PMC11054735, “LDLR-Mediated Targeting and Productive Uptake of siRNA-Peptide Ligand Conjugates In Vitro and In Vivo” (Pharmaceutics, 2024)
Like-named read-outs stand apart in the source and are kept apart here.

Assays:
[1] = biological target: T1, His-tagged recombinant mouse LDLR (extracellular domain, mLDLR-ECD) (Mus musculus, UniProt P35951); assay: SPR LDLR-binding affinity (multiple-cycle kinetics, equilibrium KD); conditions: SPR Biacore T200, 25 °C, mLDLR on NiHC1000m chip (700–2000 RU), MCK mode, 50 mM HEPES-NaOH pH 7.4 running buffer, analyte 0.6–640 nM or 0.6–40 nM, equilibrium response fit, means ± SD of n = 6 (triplicate analysis of 2 independent experiments), read-out: Affinities SPR (equilibrium dissociation constant, KD)
T1 construct: recombinant mouse LDLR (extracellular domain, mLDLR-ECD); purchased SinoBiological (Beijing, China)
Method: His-tagged recombinant mouse LDLR (extracellular domain, mLDLR-ECD) was purchased from SinoBiological (Beijing, China). SPR measurements were performed at 25 °C using a Biacore T200 apparatus (Cytiva) and 50 mM HEPES-NaOH pH 7.4, 150 mM NaCl, 50 μM EDTA, 0.005% Tween-20 (v/v), 10 mM Imidazole as running buffer. mLDLR was immobilized on a NiHC1000 m sensor chip (Xantec, Dusseldorf, Germany) at a density of around 10–30 fmol/mm^2. A control flowcell without mLDLR was used as reference. The multiple-cycle kinetic (MCK) method was applied to study molecular interactions of peptides and conjugates. Seven to 11 different concentrations of the analyte were prepared by two-fold dilutions in running buffer (0.6–640 nM or 0.6–40 nM) and successively injected over the flowcells during 120 s at 30 μL/min with a dissociation time of 300 s. Blank runs of running buffer were performed in the same conditions and subtracted from sample runs before evaluation. Equilibrium dissociation constants (KD) were calculated by plotting saturation binding curves using the equilibrium response at the plateau of all curves with BiaEvaluation version 2.0 software. All data are the means of six determinations (triplicate analysis of 2 independent experiments).

[2] = system: mSOD1 mRNA in Neuro-2a cells; assay: Gene silencing after transfection (DharmaFECT 2) in Neuro-2a cells, RT-qPCR; type: cell-based, mouse; conditions: DharmaFECT 2, 30 nM, 24 h at 37 °C
Method: Neuro-2a cells were plated in a 96-well plate at 4000 cells/well one day before experiments. According to DharmaFECT general manufacturer’s protocol (Horizon Discovery), cells were transfected with a mix containing the DharmaFECT 2 and 30 nM of tested compound. […] At the end of the incubation period, Neuro-2a cells were washed once with D-PBS before RNA extraction.
(§1) For in vitro free uptake experiments, the total RNA was extracted using the NucleoSpin RNA XS (Macherey Nagel, Hoerdt, France) according to the manufacturer’s recommendations. For transfection experiments the SuperScript™ IV CellsDirect™ cDNA Synthesis kit (Thermo Fisher Scientific) was used according to manufacturer’s recommendations. For in vivo experiments, mouse organs were crushed in 2 mL tubes pre-filled with ceramic mixture in Precellys®Cryolys® Evolution (Bertin, Montigny le Bretonneux, France) with a QIAZOL lysis buffer (Qiagen, Venlo, The Netherlands). A volume of 150 µL of chloroform (Sigma Aldrich) was added to 750 µL of tissue homogenate and a phenol/chloroform separation was performed using centrifugation for 15 min at 6000× g at 4 °C. Aqueous phases were recovered and RNA extraction was performed with the RNeasy 96 QIAcube HT Kit (Qiagen) according to the manufacturer’s recommendations, in a QIACUBE HT instrument (Qiagen). […] For reverse transcription (RT), 500 ng of total RNA were used (except for cells treated with SuperScript™ IV CellsDirect™ cDNA Synthesis), and cDNA synthesis was performed using the High-Capacity RNA-to-cDNA™ kit (Thermo Fisher Scientific) according to the manufacturer’s recommendations.
(§2) Real-time quantitative PCR (RT-qPCR) assays were performed using the CFX96 Touch Real-Time PCR Detection System (Bio-Rad, Hercules, CA, USA). […] The following primers were used: Mm01344233_g1 SOD1 (mouse), Mm02526700_g1 RpL13 (mouse), Mm01352366_m1 SDHA (mouse), Mm00457191_m1 PSMC4 (mouse). RpL13, SDHA, or PSMC4 served as internal controls for sample normalization, and the comparative cycle threshold method (2−ΔΔCt) was used for data quantification. Finally, gene expression ratios (compared to control samples) were determined.
(A) Transfection of unconjugated siSOD1 and siSOD1-peptide conjugates on Neuro-2a cells at 30 nM. […] (B) Free uptake experiments of unconjugated siSOD1 and siSOD1-peptide conjugates on Neuro-2a cells at 1 µM. After 3 days at 37 °C, mSOD1 mRNA levels were quantified using RT-qPCR. Each dot corresponds to the mean value obtained in independent experiments. (C) Free uptake experiments of siSOD1-31, -35, -36, -37 conjugates with their respective negative controls siSOD1-31Sc, -35Sc, -36Sc, -37Sc on Neuro-2a cells at 1 µM.

[3] = system: mSOD1 mRNA in Neuro-2a cells; assay: Gene silencing by free uptake in Neuro-2a cells, RT-qPCR; type: cell-based, mouse; conditions: 1 µM, 3 days at 37 °C, DMEM with 1% fetal calf serum
Method: Neuro-2a cells were plated in a 48-well plate at 13,000 cells/well the day before the test. All siRNA and conjugates were incubated during 3 days at 37 °C with 1 µM of conjugate prepared in DMEM supplemented with 1% fetal calf serum. At the end of the incubation period, cells were washed once with D-PBS before RNA extraction. For in vitro free uptake experiments, the total RNA was extracted using the NucleoSpin RNA XS (Macherey Nagel, Hoerdt, France) according to the manufacturer’s recommendations. For transfection experiments the SuperScript™ IV CellsDirect™ cDNA Synthesis kit (Thermo Fisher Scientific) was used according to manufacturer’s recommendations. […] Aqueous phases were recovered and RNA extraction was performed with the RNeasy 96 QIAcube HT Kit (Qiagen) according to the manufacturer’s recommendations, in a QIACUBE HT instrument (Qiagen). […] For reverse transcription (RT), 500 ng of total RNA were used (except for cells treated with SuperScript™ IV CellsDirect™ cDNA Synthesis), and cDNA synthesis was performed using the High-Capacity RNA-to-cDNA™ kit (Thermo Fisher Scientific) according to the manufacturer’s recommendations. Real-time quantitative PCR (RT-qPCR) assays were performed using the CFX96 Touch Real-Time PCR Detection System (Bio-Rad, Hercules, CA, USA). […] Finally, gene expression ratios (compared to control samples) were determined. […] (A) Transfection of unconjugated siSOD1 and siSOD1-peptide conjugates on Neuro-2a cells at 30 nM. […] (B) Free uptake experiments of unconjugated siSOD1 and siSOD1-peptide conjugates on Neuro-2a cells at 1 µM. […] Each dot corresponds to the mean value obtained in independent experiments.

[4] = system: SOD1 mRNA in liver; assay: In vivo gene silencing in mouse liver after i.v. administration, RT-qPCR; conditions: C57Bl/6JRj mice, single i.v. bolus 1 µmole/kg (15 mg/kg siRNA) in PBS, liver 7 days post-administration
Method: Wild-type male C57Bl/6JRj mice (Janvier Labs, Le Genest-Saint-Isle, France) aged 10–12 weeks old were used. All animal studies were approved by the ethics committee for animal experimentation (CEEA-N°14) and approved by French ministry of agriculture (MRC). […] Intravenous (i.v., lateral tail vein) administrations (15 mg/kg) were performed on conscious restrained mice. Following a 7-day observational period, animals were euthanized by an intraperitoneal overdose of Ketamin-Xylasine mixture (Sigma Aldrich, Saint-Quentin-Fallavier, France), and tissue samples were collected after extensive blood wash-out by intracardiac perfusion (Left ventricle, Flow rate 8 mL/min) of a saline solution (0.9%) and immediately stored at −20 °C in 10 vol NucleoProtect RNA stabilization reagent (Macherey-Nagel, Düren, Germany) before further RNA extraction and target mRNA quantification.
as §1, §2
The in vivo targeting and functional uptake potential of LDLR-binding siSOD1-peptide conjugates was evaluated as follows.
Mice were injected (i.v. lateral tail vein) with unconjugated siRNAs and siSOD1-peptide conjugates in PBS (15 mg/kg). Seven days post-administration mice were euthanized and perfused with saline solution (0.9% NaCl). Organs were collected to assess the SOD1 mRNA levels using RT-qPCR.

[5] = incubation at 2 mM in freshly collected mouse blood at 37 °C; LC-MS/MS on plasma fractions; peptide described elsewhere; cited from earlier work
Excerpt: Among the family of peptide-based vectors we identified, the VH4127 (cyclo[(D)-Cys-Met-Thz-Arg-Leu-Arg-Gly-Pen]) peptide ligand used in this study was described elsewhere. Briefly, it was obtained by high-throughput screening of phage display peptide libraries on engineered cell lines expressing the mouse and human LDLR, and was further chemically optimized for optimal LDLR-binding affinity and plasma stability. The VH4127 peptide contains three non-natural amino-acids D-Cys, Thz, and Pen (at positions 1, 3, and 8, respectively), and a disulfide bridge between D-Cys and Pen side ...

T1 sequence (P35951 22-790 limits assumed): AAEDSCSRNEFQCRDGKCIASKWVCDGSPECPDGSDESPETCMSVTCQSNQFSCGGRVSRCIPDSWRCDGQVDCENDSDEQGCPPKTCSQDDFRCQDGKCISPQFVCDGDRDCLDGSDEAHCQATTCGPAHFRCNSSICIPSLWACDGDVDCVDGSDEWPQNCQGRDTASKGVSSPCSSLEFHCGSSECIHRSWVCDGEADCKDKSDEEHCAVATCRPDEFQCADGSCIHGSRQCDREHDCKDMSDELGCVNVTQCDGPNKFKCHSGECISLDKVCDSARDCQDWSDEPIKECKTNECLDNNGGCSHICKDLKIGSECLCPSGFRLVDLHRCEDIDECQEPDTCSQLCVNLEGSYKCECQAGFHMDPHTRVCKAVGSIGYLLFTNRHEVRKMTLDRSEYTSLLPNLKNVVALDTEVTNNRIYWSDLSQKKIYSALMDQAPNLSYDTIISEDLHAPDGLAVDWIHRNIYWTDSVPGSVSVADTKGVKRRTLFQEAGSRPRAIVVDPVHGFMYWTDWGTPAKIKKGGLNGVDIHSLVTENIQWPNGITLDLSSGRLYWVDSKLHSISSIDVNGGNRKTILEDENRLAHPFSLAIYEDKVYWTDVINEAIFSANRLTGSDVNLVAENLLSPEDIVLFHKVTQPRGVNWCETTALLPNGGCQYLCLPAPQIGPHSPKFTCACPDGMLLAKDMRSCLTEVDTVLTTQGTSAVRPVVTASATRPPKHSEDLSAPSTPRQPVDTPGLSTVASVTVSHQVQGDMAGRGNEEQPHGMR

Row | Molecule | Kd ([1]; SD) [nM] | In Vitro KD on N2A, Transfection (mSOD1 mRNA knock-down) [2] [%] | In Vitro KD on N2A, Free Uptake (mSOD1 mRNA knock-down) [3] | In Vivo KD, Liver (SOD1 mRNA knock-down) [4] | Kd [1] [nM] | In vitro plasma stability, estimated half-life [5] [h]
1 | Pr-[cMThzRLRGPenG]c-OH (disulfide) [siSOD1-35] | 11.3 ± 2.9 | >90 | improved KD effect compared to its non-binding control siSOD1-35sc | 50% |  | 
2 | Pr-[cMThzRLRGPen]c-PEG2-K(N3)-NH2 (disulfide) [siSOD1-32] | 86.8 ± 17.1 | 40 | did not show improvement compared to the unconjugated 5′P-siSOD1 | ~ 20% | 87 to 104 | 
3 | Pr-K(N3)-PEG2-[cMThzRLRGPen]c-NH2 (disulfide) [siSOD1-36] | 25 ± 1.2 | >90 | 60% | 30% |  | 
4 | Pr-K(N3)-PEG2-[cMThzRLRGPen]c-NH2 (disulfide) [siSOD1-37] | 31.9 ± 1.6 | >90 | 60% | 35% |  | 
5 | CCC(=O)N[C@@H]1CSSC(C)(C)[C@@H](C(N)=O)NC(=O)CNC(=O)[C@H](CCCNC(=N)N)NC(=O)[C@H](CC(C)C)NC(=O)[C@H](CCCNC(=N)N)NC(=O)[C@@H]2CSCN2C(=O)[C@H](CCSC)NC1=O [VH4127, cyclo[(D)-Cys-Met-Thz-Arg-Leu-Arg-Gly-Pen]] |  |  |  |  |  | 4.27
6 | Pr-K(N3)-PEG2-[cMThzRLRGPen]c-NH2 (disulfide) [siSOD1-31] | 104 ± 11.7 | >90 | 55% | 40% | 87 to 104 | 
7 | Pr-K(N3)-PEG2-[cMThzRLRGPen]c-NH2 (disulfide) [siSOD1-33] | 12.8 ± 1.9 | >90 |  | ~50% |  | 
